Where a name gives a salt, the structure may show the parent alone. Read-outs that look alike come from different tables or passages of the source.

In assay [1] the target is KRAS protein containing G12D mutation (Homo sapiens (Human), UniProt P01116, G12D). Put plainly: SOS-catalyzed nucleotide exchange assay (GNE), TR-FRET. The format is biochemical. Conditions: biotinylated KRAS G12D, SOS and GTP, 60-minute incubation. On the procedure: Compounds are added to this complex and then after a 60-minute incubation time the mixture is treated with SOS and unlabeled GTP. Small molecule inhibitors stabilize the Bodipy-GDP complex whereas the untreated protein rapidly exchanges Bodipy-GDP for unlabeled GTP resulting in reduced TR-FRET signal.
This solution is referred to as biotinylated KRAS G12D stock solution.

Assay [2] concerns AsPC-1 cells containing homozygous KRAS-G12D activating mutation. The assay can be described thus: Cellular phospho-ERK assay with 10% FBS (Examples 107a-256). The format is cell-based. The method, then: 5% CO2 for 2 hours. […] Assay plates were read on a EnVision Multimode Plate Reader (PerkinElmer) and the ratio of p-Erk vs total Erk in each well was used as the final readout.

The mark [3] stands for this setting: read-out: IC50 (nM) pERK (cell with FBS 10%), AsPC-1 cells, 10% fetal bovine serum, 2 hours, ratio of p-Erk vs total Erk.
[4] abbreviates: Homo sapiens, ASPC1, 2 h, read-out: IC50 (nM) pERK (cell with FBS 10%), AsPC-1 cells, 10% fetal bovine serum, 2 hours, ratio of p-Erk vs total Erk.

KRAS protein containing G12D mutation, sequence (P01116 other isoform, or with tags, fused parts or gaps G12D (already in the parent)): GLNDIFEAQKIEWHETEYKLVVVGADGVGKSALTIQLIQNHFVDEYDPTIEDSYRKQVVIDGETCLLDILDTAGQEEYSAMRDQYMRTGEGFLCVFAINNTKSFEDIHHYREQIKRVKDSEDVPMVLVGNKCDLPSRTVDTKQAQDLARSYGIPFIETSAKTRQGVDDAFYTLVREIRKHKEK

For `CO[C@@H]1CCN(C[C@@]2(COc3nc(N4CC5CC[C@@](C)(C4)N5)c4cc(F)c(-c5cc(O)cc6cccc(Cl)c56)c(F)c4n3)CC2(F)F)C1` (single isomer, unassigned) [Ex. 215a], the IC50 worked out at 5.06 nM in assay [1] and 14000 nM in assay [2] (setting [3]).

For `C[C@]12CC[C@H](CN(c3nc(OC[C@@H]4CCN(C5CCCCC5O)C4)nc4c(F)c(-c5cc(O)cc6ccccc56)c(Cl)cc34)C1)N2` (stereo partly drawn) [Example 121, 4-(6-chloro-8-fluoro-2-(((3R)-1-(2-hydroxycyclohexyl)pyrrolidin-3-yl)methoxy)-4-((1S,5R)-1-methyl-3,8-diazabicyclo[3.2.1]octan-3-yl)quinazolin-7-yl)naphthalen-2-ol, TFA], the IC50 in assay [1] was determined as 615 nM; in assay [2] (setting [4]), 11400 nM.

`Cc1cc2[nH]ncc2c(-c2c(F)cc3c(N4C[C@H]5CC[C@@](C)(C4)N5)nc(OC[C@@]45CCCN4C[C@H](F)C5)nc3c2F)c1OC(F)(F)F` (single isomer, unassigned) [Ex. 126b]: the IC50 turned out to be 67.9 nM in assay [1] and 3460 nM in assay [2] (setting [3]).

In the case of `Cc1nc(N)nc(-c2c(F)cc3c(N4C[C@H]5CC[C@@H](C4)N5)nc(OC[C@@]45CCCN4C[C@H](F)C5)nc3c2F)c1C(F)(F)F` [Ex. 135, 4-(4-((1R,5S)-3,8-diazabicyclo[3.2.1]octan-3-yl)-6,8-difluoro-2-(((2R,7aS)-2-fluorotetrahydro-1H-pyrrolizin-7a(5H)-yl)methoxy)quinazolin-7-yl)-6-methyl-5-(trifluoromethyl)pyrimidin-2-amine], the IC50 was determined as 54.6 nM in assay [1] and 469 nM in assay [2] (setting [4]).

With `C#Cc1cccc2cc(O)cc(-c3c(F)cc4c(N5C[C@H]6CC[C@@](C)(C5)N6)nc(OC)nc4c3F)c12` (single isomer, unassigned) [Ex. 171a, TFA], the IC50 in assay [1] turned out to be 1260 nM; in assay [2] (setting [4]), 7720 nM.

With `CN(C)C[C@@]1(COc2nc(N3C[C@H]4CC[C@@H](C3)N4)c3cc(F)c(-c4c(C(F)(F)F)c(Cl)cc5cnn(C)c45)c(F)c3n2)CC1(F)F` (single isomer, unassigned) [Ex. 201b], the IC50 in assay [1] was found to be 45.9 nM; in assay [2] (setting [4]), 15600 nM.

In the case of `CCC(=O)Oc1cc(-c2c(F)cc3c(N4CC5CC[C@@](C)(C4)N5)nc(OC[C@@]45CCCN4C[C@H](F)C5)nc3c2F)c2c(Cl)cccc2c1` (single isomer, unassigned) [Ex. 162b], the IC50 in assay [1] worked out at 495 nM; in assay [2] (setting [3]), 2390 nM.

As for `CN1CCC[C@H]1COc1nc(N2CC3CC[C@@](C)(C2)N3)c2cc(F)c(-c3cc(O)cc4ccccc34)c(F)c2n1` [Example 118, 4-(6,8-difluoro-4-((1S,5R)-1-methyl-3,8-diazabicyclo [3.2.1]octan-3-yl)-2-(((S)-1-ethylpyrrolidin-2-yl)methoxy)quinazolin-7-l)naphthalen-2-ol], the figures for the IC50 in assay [1] and in assay [2] (setting [4]) were 82.6 nM and 1810 nM, respectively.

With `Cc1nc(N)c(C)c(-c2c(F)cc3c(N4CC5CCC(C4)N5)nc(OC[C@@]45CCCN4C[C@H](F)C5)nc3c2F)c1C(F)(F)F` (single isomer, unassigned) [Ex. 191a], the IC50 stood at 26.5 nM in assay [1] and 288 nM in assay [2] (setting [3]).

Turning to `Cc1cc2[nH]nc(C)c2c(-c2c(F)cc3c(N4CC5CCC(C4)N5)nc(OC[C@@]45CCCN4C[C@H](F)C5)nc3c2F)c1C(F)(F)F` (single isomer, unassigned) [Ex. 128a], the results for the IC50 in assay [1] and in assay [2] (setting [3]) were 1.28 nM and 43.4 nM, respectively.

On to `C#Cc1c(F)ccc2cccc(-c3c(F)cc4c(N5C[C@H]6CC[C@@](C)(C5)N6)nc(OC[C@@]56CCCN5[C@H](CF)CC6)nc4c3F)c12` (single isomer, unassigned) [Ex. 149], for which the IC50 in assay [1] is 103 nM; in assay [2] (setting [4]) it was 4490 nM.

With `C#Cc1cccc2nc(N)cc(-c3c(F)cc4c(N5CC6CCC(C5)N6)nc(OC[C@@]56CCCN5C[C@H](F)C6)nc4c3F)c12` (single isomer, unassigned) [Ex. 203a], the IC50 in assay [1] was 380 nM; in assay [2] (setting [3]) it was 3020 nM.

`COCC1CCN(C[C@@]2(COc3nc(N4CC5CC[C@@](C)(C4)N5)c4cc(F)c(-c5cc(O)cc6cccc(Cl)c56)c(F)c4n3)CC2(F)F)C1` (single isomer, unassigned) [Ex. 214a]: the IC50 turned out to be 4.95 nM in assay [1] and 3710 nM in assay [2] (setting [3]).

`Nc1cc(-c2c(F)cc3c(N4CC5CCC(C4)N5)nc(OC[C@@]45CCCN4C[C@H](F)C5)nc3c2F)c2c(Cl)cccc2n1` (single isomer, unassigned) [Ex. 231b]: the values for the IC50 in assay [1] and in assay [2] (setting [3]) were 38.4 nM and 326 nM, respectively.

`Cc1nc(N)c(C)c(-c2c(F)cc3c(N4CC5CCC(C4)N5)nc(OC[C@@]45CCCN4C[C@H](F)C5)nc3c2F)c1C(F)(F)F` (single isomer, unassigned) [Ex. 191b]: the IC50 is 2840 nM in assay [1] and 30000 nM in assay [2] (setting [3]).

For the compound `C#Cc1cccc2cc(O)c(C)c(-c3c(F)cc4c(N5CC6CC[C@@](C)(C5)N6)nc(OC[C@@]56CCCN5C[C@H](F)C6)nc4c3F)c12` (single isomer, unassigned) [Ex. 204a], the IC50 was 1.13 nM in assay [1] and 64.2 nM in assay [2] (setting [3]).

For the compound `C[C@@]12CC[C@H](CN(c3nc(OC[C@@]45CCCN4C[C@H](F)C5)nc4c(F)c(-c5cc(O)cc6ccc(F)c(Cl)c56)c(F)cc34)C1)N2` (single isomer, unassigned) [Ex. 176b], the IC50 is 110 nM in assay [1] and 4360 nM in assay [2] (setting [4]).

As to `[2H]c1c([2H])c(C#C)c2c(-c3c(F)cc4c(N5C[C@H]6CC[C@@](C)(C5)N6)nc(OC[C@@]56CCCN5C[C@H](F)C6)nc4c3F)c([2H])c([2H])c([2H])c2c1[2H]` [compound 241, 7-(8-ethynylnaphthalen-1-yl-2,3,4,5,6,7-d6)-6,8-difluoro-2-(((2R,7aS)-2-fluorotetrahydro-1H-pyrrolizin-7a(5H)-yl)methoxy)-4-((1S,5R)-1-methyl-3,8-iazabicyclo[3.2.1]octan-3-yl)quinazoline, 2TFA], the IC50 stood at 8.63 nM in assay [1] and 1760 nM in assay [2] (setting [4]).

Take `C#Cc1cccc2c(F)c(O)cc(-c3c(F)cc4c(N5C[C@H]6CC[C@@](C)(C5)N6)nc(OC[C@@]56CCCN5C[C@H](F)C6)nc4c3F)c12` [202a, 4-(6,8-difluoro-2-(((2R,7aS)-2-fluorotetrahydro-1H-pyrrolizin-7a(5H)-yl)methoxy)-4-((1.5R)-1-methyl-3,8-diazabicyclo[3.2.1]octan-3-yl)quinazolin-7-yl)-5-ethynyl-1-fluoronaphthalen-2-ol]: the results for the IC50 in assay [1] and in assay [2] (setting [3]) were 302 nM and 11500 nM, respectively.

Regarding `C[C@]12CCC(CN(c3nc(OCC45CCCN4CC(C(F)F)C5)nc4c(F)c(-c5cc(O)cc6cccc(Cl)c56)c(F)cc34)C1)N2` (single isomer, unassigned) [Ex. 173-2a], the values for the IC50 in assay [1] and in assay [2] (setting [3]) were 266 nM and 10200 nM, respectively.

`C[C@]12CC[C@H](CN(c3nc(OC[C@@]45CCCN4C[C@H](F)C5)nc4c(F)c(-c5c6cn[nH]c6cc6cccc(Cl)c56)c(F)cc34)C1)N2` [Ex. 187, 5-chloro-4-(6,8-difluoro-2-(((2R,7aS)-2-fluorotetrahydro-1H-pyrrolizin-7a(5H)-yl)-methoxy)-4-((1S,5R)-1-methyl-3,8-diaza-bicyclo[3.2.1]octan-3-yl)quinazolin-7-yl)-1H-benzo[f]indazole]: the IC50 in assay [1] was 27.3 nM; in assay [2] (setting [4]) it was 1100 nM.

In the case of `C#Cc1cccc2cc(N)nc(-c3c(F)cc4c(N5CC6CCC(C5)N6)nc(OC[C@@]56CCCN5C[C@H](F)C6)nc4c3F)c12` (single isomer, unassigned) [Ex. 148b], the results for the IC50 in assay [1] and in assay [2] (setting [3]) were 751 nM and 8550 nM, respectively.

For `Nc1nc2c(-c3c(Cl)cc4c(N5CC6CCC(C5)N6)nc(OC[C@@]56CCCN5C[C@H](F)C6)nc4c3F)c(F)cc(F)c2o1` (single isomer, unassigned) [Ex. 133a], the values for the IC50 in assay [1] and in assay [2] (setting [3]) were 61.4 nM and 3470 nM, respectively.

As to `N#Cc1c(N)sc2c(F)ccc(-c3c(F)cc4c(N5C[C@H]6CC[C@@H](C5)N6)nc(OC[C@@]56CCCN5C[C@H](F)C6)nc4c3F)c12` (single isomer, unassigned) [Ex. 144a], the IC50 was found to be 2.03 nM in assay [1] and 83.9 nM in assay [2] (setting [3]).

As to `C#Cc1cccc2nc(N)cc(-c3c(F)cc4c(N5CC6CCC(C5)N6)nc(OC[C@@]56CCCN5C[C@H](F)C6)nc4c3F)c12` (single isomer, unassigned) [Ex. 203b], the IC50 in assay [1] worked out at 3.32 nM; in assay [2] (setting [3]) it was 120 nM.

As to `Nc1cc2cccc(Cl)c2c(-c2c(F)cc3c(N4CC5CCC(C4)N5)nc(OC[C@@]45CCCN4C[C@H](F)C5)nc3c2F)n1` (single isomer, unassigned) [Ex. 189a], the IC50 is 12.8 nM in assay [1] and 672 nM in assay [2] (setting [4]).

`CCC(=O)Oc1cc(-c2c(F)cc3c(N4CC5CC[C@@](C)(C4)N5)nc(OC[C@@]45CCCN4C[C@H](F)C5)nc3c2F)c2c(Cl)cccc2c1` (single isomer, unassigned) [Ex. 162a]: the values for the IC50 in assay [1] and in assay [2] (setting [3]) were 23.1 nM and 659 nM, respectively.

On to `Cc1cc(N)nc(-c2c(F)cc3c(N4CC5CC[C@@](C)(C4)N5)nc(OC[C@@]45CCCN4C[C@H](F)C5)nc3c2F)c1C(F)(F)F` (single isomer, unassigned) [Ex. 200a], for which the IC50 in assay [1] amounted to 72.9 nM; in assay [2] (setting [4]), 1220 nM.

`C#Cc1c(F)ccc2cccc(-c3c(F)cc4c(N5CC6CC[C@@](C)(C5)N6)nc(OCC56CCCN5C(COC(=O)N(C)C)CC6)nc4c3F)c12` (single isomer, unassigned) [242a]: the IC50 worked out at 1.15 nM in assay [1] and 135 nM in assay [2] (setting [3]).
